Data reported in patent US12534472B2, “Morphic forms of trilaciclib and methods of manufacture thereof” (Pharmacosmos Holding A/S, priority 2020, dated 2026).
Entries after “also recorded” stand apart in the source; their conditions may differ.

Columns and labels:
Format in all cases: physicochemical
[1] = Competitive slurry experiments
Procedure: Competitive slurry experiments were carried out using ca. 10 mg of Pattern 1, Pattern 2/6 mixture and Pattern 3 were weighed out and added to a 1.5 mL glass vial. Samples were prepared using 100 μL aliquots of solvent until a mobile slurry was formed. Samples were stirred at ambient temperature for 48 hours. A second set of samples were stirred at 60° C. for 48 hours. All samples were collected, and the solids were isolated and analyzed by XRPD. The above technique was used to generate the images in FIG. 50, FIG. 51, and FIG. 55 through FIG. 59.

[2] = Thermodynamic solubility in water at pH 4.2
Procedure: Thermodynamic solubility was carried out for Pattern 1, Pattern 2/6 mixture, Pattern 3, amorphous di-HCl salts and Pattern 7 in water at pH 4.2. All samples were prepared at 30 mg/mL. Initial observations were made. The samples were agitated at ambient temperature for ca. 24 hours. The samples were collected and observations made. Observed solids were isolated via centrifugation. The mother liquor from the filtered sample was analyzed by HPLC. The pH 4.3 solution was prepared by diluting glacial acetic acid (11.6 mL) to 100 mL in deionized water, then adding sodium acetate (1.07 g) and acetic acid solution (5.9 mL) preparing up to 500 mL with deionized water; then the pH was adjusted to 4.2. The above technique was used to generate the images in FIG. 60.

[3] = Gravimetric Vapor Sorption (GVS); conditions: 25° C.
Procedure: Approximately 10-20 mg of sample was placed into a mesh vapor sorption balance pan and loaded into an IGASorp Moisture Sorption Analyzer balance by Hiden Analytical. The sample was subjected to a ramping profile from 40-90% relative humidity (RH) at 10% increments, maintaining the sample at each step until a stable weight had been achieved (98% step completion, minimum step length 30 minutes, maximum step length 60 minutes) at 25° C. After completion of the sorption cycle, the sample was dried using the same procedure to 0% RH, and finally taken back to the starting point of 40% RH. Three cycles were performed. The weight change during the sorption/desorption cycles were plotted, allowing for the hygroscopic nature of the sample to be determined. The above technique was used to generate the images in FIG. 40 and FIG. 41.

[4] = Dynamic Vapor Sorption (DVS)
Procedure: Approximately, 10-20 mg of sample was placed into a mesh vapor sorption balance pan and loaded into a DVS Intrinsic dynamic vapor sorption balance by Surface Measurement Systems. The sample was subjected to a ramping profile from 40-90% relative humidity (RH) at 10% increments, maintaining the sample at each step until a stable weight had been achieved (dm/dt 0.004%, minimum step length 30 minutes, maximum step length 500 minutes) at 25° C. After completion of the sorption cycle, the sample was dried using the same procedure to 0% RH and then a second sorption cycle back to 40% RH. Two cycles were performed. The weight change during the sorption/desorption cycles were plotted, allowing for the hygroscopic nature of the sample to be determined. XRPD analysis was then carried out on any solid retained. The above technique was used to generate the images in FIG. 5, FIG. 6, FIG. 47 and FIG. 48.

## CN1CCN(c2ccc(Nc3ncc4cc5n(c4n3)C3(CCCCC3)CNC5=O)nc2)CC1 [Pattern 1, 2′-((5-(4-methylpiperazin-1-yl)pyridin-2-yl)amino)-7′,8′-dihydro-6′H-spiro[cyclohexane-1,9′-pyrazino[1′,2′:1,5]pyrrolo[2,3-d]pyrimidin]-6′-one]
[1]
  stability compared to other morphic forms: superior stability
[2]; 30 mg/mL in water at pH 4.2, agitated at ambient temperature ca. 24 hours
  Observations at T = 24 hours: Yellow solution
[2]; 30 mg/mL in water at pH 4.2, ambient temperature, T = 0 hours
  Observations at T = 0 hours: Yellow slurry
[3]; Cycle 1, desorption, target RH 0%
  Change in Mass (%)-ref Desorption: 0.180%
[3]; Cycle 1, desorption, target RH 10%
  Change in Mass (%)-ref Desorption: 2.320%
[3]; Cycle 1, desorption, target RH 20%
  Change in Mass (%)-ref Desorption: 2.820%
[3]; Cycle 1, desorption, target RH 30%
  Change in Mass (%)-ref Desorption: 3.110%
[3]; Cycle 1, desorption, target RH 40%
  Change in Mass (%)-ref Desorption: 3.340%
[3]; Cycle 1, desorption, target RH 50%
  Change in Mass (%)-ref Desorption: 3.580%
[3]; Cycle 1, desorption, target RH 60%
  Change in Mass (%)-ref Desorption: 3.730%
[3]; Cycle 1, desorption, target RH 70%
  Change in Mass (%)-ref Desorption: 3.820%
[3]; Cycle 1, desorption, target RH 80%
  Change in Mass (%)-ref Desorption: 3.970%
[3]; Cycle 1, desorption, target RH 90%
  Change in Mass (%)-ref Desorption: 4.160%
[3]; Cycle 1, sorption, target RH 40%
  Change in Mass (%)-ref Sorption: 3.420%
[3]; Cycle 1, sorption, target RH 50%
  Change in Mass (%)-ref Sorption: 3.560%
[3]; Cycle 1, sorption, target RH 60%
  Change in Mass (%)-ref Sorption: 3.720%
[3]; Cycle 1, sorption, target RH 70%
  Change in Mass (%)-ref Sorption: 3.800%
[3]; Cycle 1, sorption, target RH 80%
  Change in Mass (%)-ref Sorption: 3.920%
[3]; Cycle 1, sorption, target RH 90%
  Change in Mass (%)-ref Sorption: 4.160%
[3]; Cycle 2, desorption, target RH 0%
  Change in Mass (%)-ref Desorption: 0.000%
[3]; Cycle 2, desorption, target RH 10%
  Change in Mass (%)-ref Desorption: 2.240%
[3]; Cycle 2, desorption, target RH 20%
  Change in Mass (%)-ref Desorption: 2.680%
[3]; Cycle 2, desorption, target RH 30%
  Change in Mass (%)-ref Desorption: 3.020%
[3]; Cycle 2, desorption, target RH 40%
  Change in Mass (%)-ref Desorption: 3.260%
[3]; Cycle 2, desorption, target RH 50%
  Change in Mass (%)-ref Desorption: 3.500%
[3]; Cycle 2, desorption, target RH 60%
  Change in Mass (%)-ref Desorption: 3.670%
[3]; Cycle 2, desorption, target RH 70%
  Change in Mass (%)-ref Desorption: 3.780%
[3]; Cycle 2, desorption, target RH 80%
  Change in Mass (%)-ref Desorption: 3.890%
[3]; Cycle 2, desorption, target RH 90%
  Change in Mass (%)-ref Desorption: 4.080%
[3]; Cycle 2, sorption, target RH 0%
  Change in Mass (%)-ref Sorption: 0.180%
[3]; Cycle 2, sorption, target RH 10%
  Change in Mass (%)-ref Sorption: 2.300%
[3]; Cycle 2, sorption, target RH 20%
  Change in Mass (%)-ref Sorption: 2.770%
[3]; Cycle 2, sorption, target RH 30%
  Change in Mass (%)-ref Sorption: 3.030%
[3]; Cycle 2, sorption, target RH 40%
  Change in Mass (%)-ref Sorption: 3.290%
[3]; Cycle 2, sorption, target RH 50%
  Change in Mass (%)-ref Sorption: 3.470%
[3]; Cycle 2, sorption, target RH 60%
  Change in Mass (%)-ref Sorption: 3.660%
[3]; Cycle 2, sorption, target RH 70%
  Change in Mass (%)-ref Sorption: 3.780%
[3]; Cycle 2, sorption, target RH 80%
  Change in Mass (%)-ref Sorption: 3.900%
[3]; Cycle 2, sorption, target RH 90%
  Change in Mass (%)-ref Sorption: 4.080%
[3]; Cycle 3, sorption, target RH 0%
  Change in Mass (%)-ref Sorption: 0.000%
[3]; Cycle 3, sorption, target RH 10%
  Change in Mass (%)-ref Sorption: 2.250%
[3]; Cycle 3, sorption, target RH 20%
  Change in Mass (%)-ref Sorption: 2.740%
[3]; Cycle 3, sorption, target RH 30%
  Change in Mass (%)-ref Sorption: 3.020%
[3]; Cycle 3, sorption, target RH 40%
  Change in Mass (%)-ref Sorption: 3.220%
[4]; at 40% RH
  moisture adsorbed (DVS): 3.00 wt %
[4]; at 90% RH
  moisture adsorbed (DVS): 4.00 wt %
[4]; between 0% and 90% RH
  mass increase by DVS: 4%
[4]; dried sample at the conclusion of the DVS experiment
  XRPD analysis post-DVS (form stability): confirmed Pattern 1; also recorded: no change
